Measurements published in patent US5008267A, “Pyrimidinedione compounds, method of producing the same and antiarrythmic agents containing the same” (Mitsui Toatsu Chemicals, Incorporated, priority 1988, dated 1991).
Structures can show the parent of a compound that is named as a salt.

Legend:
[1] = system: Purkinje fiber of the right ventricular free wall (myocardial action potential); experiment: Influence on myocardial action potential duration time (APD75), isolated right ventricular free wall, microelectrode in Purkinje fiber; type: cell-based, dog; settings: Canis lupus familiaris, 20 min, 20 minutes' incubation; for activation at 1 µg/mL: 1.0 μg/ml; for activation at 1 µg/mL / activation at 3 µg/mL / activation at 10 µg/mL: (B-A)/A×100, read-out: APD75 (%); for activation at 3 µg/mL: 3.0 μg/ml; for activation at 10 µg/mL: 10.0 μg/ml
[2] = system: ventricular muscle refractory period; experiment: Influence on ventricular muscle refractory period (ERP); type: in vivo, mongrel dog; settings: Canis lupus familiaris, iv, i.v., (W-Y)/Y×100, read-out: ERP (%; extensibility of refractory period)
Description: (2) Influence on ventricular muscle refractory period Refractory periods were measured in the following manner before and after each of the compounds and d-sotalol shown in Table 2 was separately administered to a vein or a duodenum, and ERP (%; extensibility of refractory period) was calculated from the measured values: ERP (%)=(W-Y)/Y×100 W: Refractory period after administration Y: Refractory period before administration To a mongrel adult dog, 30 mg/kg of pentobarbital was administered intravenously, and after being anesthetized, a pair of silver-silver chloride electrodes separated by 3 mm was sewn on an opened right ventricule, and electrical stimulation was given at an interval of 400 msec at a duration time of 4 msec under a current twice as much as the threshold. Afterward, a small amount of alcohol was injected into a sinus artery in order to extinguish a pacemaker activity, and the ventricular refractory period (ERP) was measured under ventricule pacing. That is, each 1 train comprised 10 stimulations having intervals of 400 msec, and an interval between the trains was usually 400 msec. However, this interval was shortened 10 msec by 10 msec at the time of the refractory period measurement, and an interval between the trains at the time when reaction to the first stimulation of the train disappeared was regarded as the refractory period. In this case, the electrical stimulation was fed in accordance with a program by a heart stimulation device (Diamedical Co., Ltd.; DHM-226-3).

[3] = Toxicity test, mortality rate 24 hours after administration; settings: mouse, in vivo
Description: Each of the compounds prepared in the above-mentioned examples was administered into a mouse (ddY strain, male). In each case, oral administration (p.o.) and intra peritoneal administration (i.p.) were separately carried out in a dose of 300 mg/kg and 250 mg/kg, respectively.
A mortality rate (number of specimens: one group=2 to 4 mice) of the mice 24 hours after the administration was calculated, and the results are set forth in Table 3.
Following the same procedure as in Toxicity Test 1, toxicity of the respective compounds prepared in the above examples in Table 5 was tested to calculate a mortality rate of mice.
Administration was made by oral administration (p.o.) in an amount of 300 mg/kg of each compound for one mouse.
Following the same procedure as in Toxicity Test 1, toxicity of the respective compounds prepared in the above examples in Table 7 was tested to calculate a mortality rate of mice.

Compound	activation at 0.3 µg/mL ([1]; 0.3 μg/ml, (B-A)/A×100) [%]	activation at 1 µg/mL [1] [%]	activation at 3 µg/mL [1] [%]	change in vivo at 0.1 mg/kg [2] [%]	change in vivo at 0.3 mg/kg [2] [%]	change in vivo at 1 mg/kg [2] [%]	change in vivo at 3 mg/kg [2] [%]	mortality at 24 h ([3]; ip, 250 mg/kg (i.p.)) [%]	mortality at 24 h ([3]; po, 300 mg/kg (p.o.)) [%]	activation at 10 µg/mL [1] [%]
Cn1c(NCCN(CCO)CCCc2ccc([N+](=O)[O-])cc2)cc(=O)n(C)c1=O [Compound 8]	16	22	38	0	10.7	21.4	14.2	0	0	–
CCN(CCNc1ccc([N+](=O)[O-])cc1)CCNc1cc(=O)n(C)c(=O)n1C [Compound 71, 1,3-dimethyl-6-{2-[N-ethyl-2-(4-nitroanilino)ethylamino]ethylamino}-2,4(1H,3H)-pyrimidinedione oxalate]	–	8	15	6.7	7.7	13.4	16.6	–	0	17
Cn1c(N2CCN(CCCOc3ccc([N+](=O)[O-])cc3Cl)CC2)cc(=O)n(C)c1=O [Compound 141, 1,3-dimethyl-6-{4-[3-(2-chloro-4-nitrophenyloxy)propyl]piperazin-1-yl}-2,4(1H,3H)-pyrimidinedione hydrochloride]	–	27	41	0	2.1	2.1	15	–	0	–
CCOC(=O)CN(CCCc1ccc([N+](=O)[O-])cc1)CCNc1cc(=O)n(C)c(=O)n1C [Compound 175, 1,3-dimethyl-6-{2-[N-ethoxycarbonylmethyl-3-(4-nitrophenyl)propylamino]ethylamino}-2,4(1H,3H)-pyrimidinedione oxalate]	–	8	16	–	–	–	–	–	0	–
Cn1c(N2CCN(CCCCc3ccc([N+](=O)[O-])cc3)CC2)cc(=O)n(C)c1=O [Compound 34, 1,3-dimethyl-6-{4-[4-(4-nitrophenyl)butyl]piperazine-1-yl}-2,4(1H,3H)-pyrimidinedione hydrochloride]	–	–	17	6	12	12	18	–	100	25
Cn1c(N2CCN(CCOc3ccc(C(=O)c4ccccc4)cc3[N+](=O)[O-])CC2)cc(=O)n(C)c1=O [Compound 103]	–	–	–	–	–	–	–	–	0	–
Cn1c(N2CCN(CCCOc3ccc(C(=O)c4ccccc4)cc3[N+](=O)[O-])CC2)cc(=O)n(C)c1=O [Compound 78, 1,3-dimethyl-6-{4-[3-(4-benzoyl-2-nitrophenoxy)propyl]piperazin-1-yl}-2,4(1H,3H)-pyrimidinedione oxalate]	–	19	42	6.7	13.3	20	26.7	–	0	–
Cn1c(N2CCN(Cc3ccc([N+](=O)[O-])cc3C(=O)c3ccccc3)CC2)cc(=O)n(C)c1=O [Compound 134, 1,3-dimethyl-6-{4-[(2-benzoyl-4-nitrophenyl)methyl]piperazin-1-yl}-2,4(1H,3)-pyrimidinedione oxalate]	–	–	–	–	–	–	–	–	0	–
Cn1c(N2CCN(CCCOc3ccc([N+](=O)[O-])cc3C(=O)c3ccccc3Cl)CC2)cc(=O)n(C)c1=O [Compound 105, 1,3-dimethyl-6-{4-<3-[2-(2-chlorobenzoyl)-4-nitrophenoxy]propyl>piperazin-1-yl}-2,4(1H,3H)-pyrimidinedione oxalate]	–	11	23	0	0	6.3	6.3	–	0	28
Cn1c(N2CCN(CCCOc3c(Cl)cc([N+](=O)[O-])cc3Cl)CC2)cc(=O)n(C)c1=O [Compound 165, 1,3-dimethyl-6-{4-[3-(2,6-dichloro-4-nitrophenyloxy)propyl]piperazin-1-yl}-2,4(1H,3H)-pyrimidinedione hydrochloride]	–	–	–	–	–	–	–	–	0	–
Cn1c(NCCN(CCO)CCCCc2ccc([N+](=O)[O-])cc2)cc(=O)n(C)c1=O [Compound 23]	–	18	35	–	–	–	–	–	0	39
Cn1c(N2CCN(c3ccc([N+](=O)[O-])cc3C(=O)c3ccccc3)CC2)cc(=O)n(C)c1=O [Compound 128, 1,3-dimethyl-6-{4-(2-benzoyl-4-nitrophenyl)piperazin-1-yl}-2,4(1H,3H)-pyrimidinedione oxalate]	–	–	–	–	–	–	–	–	0	–
CC(=O)OCCN(CCCc1ccc([N+](=O)[O-])cc1)CCNc1cc(=O)n(C)c(=O)n1C [Compound 167, 1,3-dimethyl-6-{2-[N-(2-acetoxyethyl)-3-(4-nitrophenyl)propylamino]ethylamino}-2,4(1H,3H)-pyrimidinedione oxalate]	–	16	21	8	8	15	15	–	0	26
CSc1ccc(OCCCN2CCN(c3cc(=O)n(C)c(=O)n3C)CC2)c([N+](=O)[O-])c1 [Compound 147, 1,3-dimethyl-6-{4-[3-(4-methylthio-2-nitrophenyloxy)propyl]piperazin-1-yl}-2,4(1H,3H)-pyrimidinedione hydrochloride]	–	14	18	0	0	0	–	–	0	–
Cn1c(N2CCN(CCCSc3ccc([N+](=O)[O-])cc3)CC2)cc(=O)n(C)c1=O [Compound 51, 1,3-dimethyl-6-{4-[3-(4-nitrophenylthio)propyl]piperazin-1-yl}-2,4(1H,3H)-pyrimidinedione oxalate]	–	–	33	12.6	12.6	19	–	–	0	–
Cn1c(N2CCN(CCOc3ccc([N+](=O)[O-])cc3C(=O)c3ccc(Br)cc3)CC2)cc(=O)n(C)c1=O [Compound 100]	–	–	–	–	–	–	–	–	0	–
Cn1c(NCCNC(=O)c2ccc([N+](=O)[O-])cc2)cc(=O)n(C)c1=O [Compound 56, 1,3-dimethyl-6-[2-(4-nitrobenzoylamino)ethylamino]-2,4(1H,3H)-pyrimidinedione]	–	–	–	6.7	6.7	6.7	–	–	50	–
Cn1c(N2CCN(CCc3ccc([N+](=O)[O-])cc3C(=O)c3ccccc3)CC2)cc(=O)n(C)c1=O [Compound 133, 1,3-dimethyl-6-(4-[2-(2-benzoyl-4-nitrophenyl)ethyl]piperazin-1-yl)-2,4(1H,3H)-pyrimidinedione oxalate]	–	–	–	6.3	6.3	18.8	–	–	0	–
Cn1c(N2CCN(CCCCOc3ccc([N+](=O)[O-])cc3)CC2)cc(=O)n(C)c1=O [Compound 54, 1,3-dimethyl-6-{4-[4-(4-nitrophenoxy)butyl]piperazin-1-yl}-2,4(1H,3H)-pyrimidinedione hydrochloride]	–	–	15	–	–	–	–	–	0	26
Cn1c(NCCNc2ccc([N+](=O)[O-])cc2C(=O)c2ccccc2)cc(=O)n(C)c1=O [Compound 131, 1,3-dimethyl-6-[2-(2-benzoyl-4-nitroanilino)ethylamino]-2,4(1H,3H)-pyrimidinedione oxalate]	–	–	–	–	–	–	–	–	0	–
